Paper PMC5524405 (PLoS ONE, 2017)

What was measured:
CIA DBA/1 mice [1] = assay: Collagen-induced arthritis (CIA) mouse model, preventative dosing, with or without MTX; format: in vivo
Procedure: (§1) Induction of CIA was performed as described previously. In brief, male DBA/1 mice (Harlan Laboratories, 8–10 weeks old) were injected subcutaneously at the base of the tail with bovine type II collagen (200 μg) admixed with reconstituted Sigma Adjuvant System (Sigma-Aldrich). The mice were boosted 21 days later in the same manner. […] Dosing proceeded from day 0 through study completion (36 days).
(§2) Threshold settings were optimized using histomorphometric methods.

BMX = BMX (Homo sapiens, UniProt P51813); assay: BMX enzymatic assay; details: read-out: Biochemical IC50, BMX; ATP at apparent KM
Procedure: (§6) Product turnover was quantitated using a Caliper LabChip 3000 (Caliper Life Sciences, Hopkinton, MA, USA). […] [^33P]-ATP was used as a substrate at a concentration equal to KM^app, and incorporation of radiolabel into peptide or protein substrates was measured.

FGR = FGR (Homo sapiens, UniProt P09769); assay: FGR enzymatic assay; details: read-out: Biochemical IC50, FGR
IGF1R = IGF1R (Homo sapiens, UniProt P08069); assay: IGF1R enzymatic assay; details: read-out: Biochemical IC50, IGF1R
From the text: (§7) Product turnover was quantitated using a Caliper LabChip 3000 (Caliper Life Sciences, Hopkinton, MA, USA). Similar assays were used for other kinases (Tec kinase, interleukin [IL]-2-inducible T-cell kinase, B-lymphocyte kinase, T cell-expressed kinase, and bone marrow-expressed kinase), with ATP concentrations equal to the apparent Michaelis constant (KM^app) for each kinase. […] [^33P]-ATP was used as a substrate at a concentration equal to KM^app, and incorporation of radiolabel into peptide or protein substrates was measured.

human B cells = assay: Antigen receptor-dependent signaling and functional endpoints in human B cells (summary); format: cell-based; details: read-out: IC50, antigen receptor-dependent signaling and functional endpoints (cytokine production, co-stimulatory molecule expression, proliferation)
Ramos B cells [2] = assay: BCR-stimulated PLCγ2 phosphorylation in Ramos B cells; format: cell-based; details: Homo sapiens, anti-IgM, read-out: IC50, BTK-catalyzed phosphorylation of PLCγ2
Procedure: The cells were pelleted and lysed, and PLCγ2 levels were measured by immunoblot using rabbit anti-human phosphoY759-PLCγ2 (Cell Signaling Technology, Danvers, MA, USA) and analyzed using the Odyssey Infrared Imaging System (Li-Cor Biosciences, Lincoln, NE, USA) with normalization to an actin control to ensure consistent loading.

[3] = tested on: B cells in human whole blood; assay: Human whole blood BCR-stimulated CD69 expression on B cells; format: cell-based; details: B-cell
From the text: The cells were stained with FITC-conjugated mouse anti-human CD20 (BD Pharmingen) and PE-conjugated mouse anti-human CD69 monoclonal antibody (BD Pharmingen), lysed and fixed, then washed. The amount of CD69 expression was quantitated by MFI after gating on the CD20-positive B-cell population as measured by FACS analysis.
The cells were stained with fluorescein isothiocyanate (FITC)-conjugated mouse anti-human CD20 (BD Pharmingen, San Diego, CA, USA) and phycoerythrin (PE)-conjugated mouse anti-human CD69 monoclonal antibody (BD Pharmingen), lysed, fixed, and then washed. The amount of CD69 expression was quantitated by MFI after gating on the CD20-positive B-cell population measured by FACS analysis.

[4] = tested on: CD27+CD20+ memory B cells (peripheral blood); assay: BCR-stimulated CD86 expression on memory B cells; format: cell-based; details: Homo sapiens, B-cell, BCR (anti-IgM)
From the text: (§3) The cells were stained with fluorescein isothiocyanate (FITC)-conjugated mouse anti-human CD20 antibody (BD Pharmingen, San Diego, CA, USA) and either allophycocyanin (APC)-conjugated mouse anti-human CD86 monoclonal antibody (BD Pharmingen) or phycoerythrin (PE)-conjugated mouse anti-human CD69 monoclonal antibody (BD Pharmingen). The amount of CD86 or CD69 expression was quantitated by median fluorescence intensity (MFI) after gating on the CD20-positive B-cell population using fluorescence-activated cell sorting (FACS) analysis. For analogous experiments measuring the effect of CD40 or Toll-like receptor 4 (TLR4) stimulation on these endpoints, either human IZ-CD40L or lipopolysaccharide (LPS) was used to stimulate the cells.

CIA DBA/1 mice [5] = assay: CIA mouse model, preventative dosing, with or without murine CTLA-4-Ig; format: in vivo; details: BMS-986142 10 mg/kg PO QD
Procedure: as §1, §2

CAIA BALB/c mice = assay: Collagen antibody-induced arthritis (CAIA) mouse model; format: in vivo
Procedure: Three days later, mice were injected IP with 1.25 mg/kg LPS from Escherichia coli O111:B4 (Sigma-Aldrich). Mice were monitored daily for development and severity of paw inflammation as described previously [24].

[6] = tested on: KLH-immunized BALB/c mice; assay: Primary anti-KLH antibody responses in mice; format: in vivo, mouse
Procedure: Activity against a KLH-induced antibody response in mice was used as a measure of antigen-driven B-cell responses. Female BALB/c mice (8–12 weeks old) were immunized intraperitoneally (IP) with 250 μg of KLH (Pierce, Rockford, IL, USA) in phosphate-buffered saline on day 0. […] Captured anti-KLH antibodies were detected using horseradish peroxidase-conjugated antibody specific for mouse IgM or IgG (Southern Biotechnology Associates, Birmingham, AL, USA) and the 3,3′,5,5′-tetramethylbenzidine peroxidase substrate system (Kirkegaard and Perry Laboratories, Gaithersburg, MD, USA). Optical densities of developed plates were quantitated in a SpectraMax Plus ELISA plate reader (Molecular Devices, Sunnyvale, CA, USA). Sera collected from mice on day 7 or day 14 after immunization with KLH were pooled and used as a standard comparator.

[7] = tested on: B cells in mouse whole blood; assay: Mouse whole blood BCR-stimulated CD69 expression on B cells; format: cell-based
Procedure: For mouse whole blood, stimulation used AffiniPure F(ab’)2 fragment goat anti-mouse IgG + IgM (Jackson ImmunoResearch) at 200 μg/mL and 1 ng/mL mouse IL-4 (R&D Systems, Minneapolis, MN, USA) for 5 hours at 37°C with agitation. After staining with APC rat anti-mouse CD19 antibody (BD Biosciences) to identify the B cells, the amount of CD69 expression was quantitated by FACS using FITC-conjugated anti-mouse CD69 monoclonal antibody (BD Biosciences).

CIA DBA/1 mice [8] = assay: CIA mouse model, therapeutic dosing, with or without etanercept; format: in vivo; details: for Clinical score reduction at end of study: therapeutic (from day 21)
Procedure: Induction of CIA was performed as described previously. In brief, male DBA/1 mice (Harlan Laboratories, 8–10 weeks old) were injected subcutaneously at the base of the tail with bovine type II collagen (200 μg) admixed with reconstituted Sigma Adjuvant System (Sigma-Aldrich). The mice were boosted 21 days later in the same manner. […]
as §2

Src = Src (Homo sapiens, UniProt P12931); assay: Src enzymatic assay
From the text: as §7

ITK = ITK (Homo sapiens, UniProt Q08881); assay: ITK enzymatic assay; details: ATP at apparent KM; read-out: Biochemical IC50, ITK
From the text: as §7

human tonsillar B cells [9] = assay: BCR-stimulated IL-6 from human tonsillar B cells; format: cell-based; details: B-cell, BCR (anti-IgM)
Procedure: (§4) After 1 hour of incubation at 37°C, the cells were stimulated with 40 μg/mL AffiniPure F(ab’)2 fragment goat anti-human IgM (Jackson ImmunoResearch) and 10 ng/mL IL-4 (Peprotech). After an additional 4.5 hours of incubation, the supernatants were collected and the levels of IL-6 and TNF-α were measured using an enzyme immunoassay.

Human recombinant BTK = Human recombinant BTK (Homo sapiens, UniProt Q06187); assay: Human recombinant BTK enzymatic assay (Caliper LabChip); details: 20 μM ATP, read-out: Biochemical IC50, BTK
From the text: as §7

[10] = tested on: basophils in human whole blood; assay: Human whole blood FcεRI (anti-IgE)-stimulated CD63 expression on basophils; format: cell-based; details: read-out: IC50, FcεRI-driven CD63 surface expression on basophils
Procedure: The blood was lysed and fixed, then washed. The percentage of CD63+ cells was measured after gating on the CCR3-positive basophil population by FACS analysis.
The blood was lysed, fixed, and then washed. The percentage of CD63+ cells was measured after gating on the C-C chemokine receptor type 3-positive basophil population by FACS analysis.

human tonsillar B cells [11] = assay: BCR-stimulated TNF-α from human tonsillar B cells; format: cell-based; details: B-cell, BCR (anti-IgM)
Procedure: as §4

[12] = tested on: human peripheral blood mononuclear cells; assay: IC-stimulated IL-6 production in peripheral blood mononuclear cells; format: cell-based; details: PBMC, FcγR (immune complex)
Procedure: (§5) TNF-α and IL-6 levels were measured using enzyme-linked immunosorbent assay (ELISA; TNF-α OptEIA, BD Biosciences; IL-6 OptEIA, BD Biosciences). For analogous experiments measuring the effect of Toll-like receptor 4 stimulation on these endpoints, lipopolysaccharide (Sigma-Aldrich, St. Louis, MO, USA) was used as the stimulus.

[13] = tested on: human peripheral blood mononuclear cells; assay: LPS (TLR4)-stimulated TNF-α in peripheral blood mononuclear cells; format: cell-based; details: PBMC
Procedure: as §5

[14] = tested on: human peripheral blood B cells; assay: BCR-stimulated CD86 expression on human peripheral blood B cells; format: cell-based; details: B-cell, BCR (anti-IgM)
From the text: as §3

Ramos B cells [15] = assay: BCR-stimulated calcium flux in Ramos B cells; format: cell-based; details: Homo sapiens, BCR (anti-IgM), read-out: IC50, Ca2+ flux
Procedure: BCR-stimulated calcium flux in Ramos B cells: Human Ramos (RA1) B cells, a Burkitt’s lymphoma cell line (ATCC, CRL-1596), pre-loaded with calcium indicator dye (BD Biosciences, San Jose, CA, USA) in media containing 10% FBS, were plated on black clear-bottom assay plates at a density of 1 × 10^6 cells/mL (150,000 cells per well).

BLK = BLK (Homo sapiens, UniProt P51451); assay: BLK enzymatic assay; details: read-out: Biochemical IC50, BLK; ATP at apparent KM
Procedure: as §6

human tonsillar B cells [16] = assay: cells; details: B-cell, read-out: IC50, Proliferation
Procedure: The cells were then labeled with [^3H]-thymidine and incubated overnight at 37°C. Cells were then harvested onto filter plates and the amount of [^3H]-thymidine incorporation, as a measure of B-cell proliferation, was determined using liquid scintillation counting.

Tec = Tec (Homo sapiens, UniProt P42680); assay: Tec kinase enzymatic assay; details: ATP at apparent KM; read-out: Biochemical IC50, Tec
From the text: as §7

Txk = Txk (Homo sapiens, UniProt P42681); assay: Txk enzymatic assay; details: ATP at apparent KM; read-out: Biochemical IC50, Txk
Procedure: as §6

[17] = tested on: human peripheral blood B cells; assay: CD40L-induced CD86 expression on peripheral blood B cells; format: cell-based; details: B-cell, CD40 (CD40L)
From the text: as §3

[18] = tested on: human monocytic osteoclast precursor cells; assay: RANK-L-induced osteoclastogenesis; format: cell-based; details: TRAP-positive multinucleated cells, 9 days in culture
Procedure: After 9 days in culture, cells were fixed and stained for tartrate-resistant acid phosphatase (TRAP; Sigma-Aldrich, St. Louis, MO, USA), and the number of TRAP-positive multinucleated cells (>2 nuclei per cell) was measured as described previously.

CSK = CSK (Homo sapiens, UniProt P41240); assay: CSK enzymatic assay
Procedure: as §6

[19] = tested on: human peripheral blood mononuclear cells; assay: IC-stimulated TNF-α production in peripheral blood mononuclear cells; format: cell-based; details: PBMC, FcγR (immune complex)
Procedure: as §5

Lck = Lck (Homo sapiens, UniProt P06239); assay: Lck enzymatic assay; details: read-out: Biochemical IC50, Lck
[20] = tested on: human peripheral blood B cells; assay: CD40L-induced CD69 expression on peripheral blood B cells; format: cell-based; details: B-cell, CD40 (CD40L)
From the text: as §3

CSK, sequence (P41240 whole entry, species assumed): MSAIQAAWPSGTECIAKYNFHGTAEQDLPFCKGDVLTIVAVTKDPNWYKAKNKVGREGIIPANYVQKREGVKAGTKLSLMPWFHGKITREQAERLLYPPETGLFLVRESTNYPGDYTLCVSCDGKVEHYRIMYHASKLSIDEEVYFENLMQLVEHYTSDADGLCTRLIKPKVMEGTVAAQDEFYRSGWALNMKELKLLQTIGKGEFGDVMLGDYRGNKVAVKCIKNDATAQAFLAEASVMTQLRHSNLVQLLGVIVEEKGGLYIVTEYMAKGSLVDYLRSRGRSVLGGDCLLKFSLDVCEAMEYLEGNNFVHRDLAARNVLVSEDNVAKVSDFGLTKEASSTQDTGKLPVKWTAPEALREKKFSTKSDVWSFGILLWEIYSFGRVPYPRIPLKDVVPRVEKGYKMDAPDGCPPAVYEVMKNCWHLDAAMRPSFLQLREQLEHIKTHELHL
Tec, sequence (P42680 whole entry): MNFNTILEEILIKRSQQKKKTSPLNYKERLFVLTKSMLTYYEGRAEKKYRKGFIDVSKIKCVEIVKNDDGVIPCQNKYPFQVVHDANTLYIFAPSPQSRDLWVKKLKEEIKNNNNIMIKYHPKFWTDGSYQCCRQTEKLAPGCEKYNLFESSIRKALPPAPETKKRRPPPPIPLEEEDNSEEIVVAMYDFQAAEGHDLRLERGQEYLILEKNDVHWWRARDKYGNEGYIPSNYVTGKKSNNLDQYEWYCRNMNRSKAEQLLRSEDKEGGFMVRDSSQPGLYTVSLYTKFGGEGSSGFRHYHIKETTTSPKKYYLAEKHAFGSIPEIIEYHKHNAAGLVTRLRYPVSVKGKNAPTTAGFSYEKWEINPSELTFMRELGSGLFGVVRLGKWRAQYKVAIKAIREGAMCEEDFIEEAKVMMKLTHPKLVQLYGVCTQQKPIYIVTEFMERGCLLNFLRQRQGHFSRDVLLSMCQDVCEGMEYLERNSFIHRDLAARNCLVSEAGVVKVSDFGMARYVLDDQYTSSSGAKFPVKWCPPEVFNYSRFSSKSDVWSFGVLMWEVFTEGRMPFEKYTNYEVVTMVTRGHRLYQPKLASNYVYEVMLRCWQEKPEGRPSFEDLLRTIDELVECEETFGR
IGF1R, sequence (P08069 31-1367, species assumed): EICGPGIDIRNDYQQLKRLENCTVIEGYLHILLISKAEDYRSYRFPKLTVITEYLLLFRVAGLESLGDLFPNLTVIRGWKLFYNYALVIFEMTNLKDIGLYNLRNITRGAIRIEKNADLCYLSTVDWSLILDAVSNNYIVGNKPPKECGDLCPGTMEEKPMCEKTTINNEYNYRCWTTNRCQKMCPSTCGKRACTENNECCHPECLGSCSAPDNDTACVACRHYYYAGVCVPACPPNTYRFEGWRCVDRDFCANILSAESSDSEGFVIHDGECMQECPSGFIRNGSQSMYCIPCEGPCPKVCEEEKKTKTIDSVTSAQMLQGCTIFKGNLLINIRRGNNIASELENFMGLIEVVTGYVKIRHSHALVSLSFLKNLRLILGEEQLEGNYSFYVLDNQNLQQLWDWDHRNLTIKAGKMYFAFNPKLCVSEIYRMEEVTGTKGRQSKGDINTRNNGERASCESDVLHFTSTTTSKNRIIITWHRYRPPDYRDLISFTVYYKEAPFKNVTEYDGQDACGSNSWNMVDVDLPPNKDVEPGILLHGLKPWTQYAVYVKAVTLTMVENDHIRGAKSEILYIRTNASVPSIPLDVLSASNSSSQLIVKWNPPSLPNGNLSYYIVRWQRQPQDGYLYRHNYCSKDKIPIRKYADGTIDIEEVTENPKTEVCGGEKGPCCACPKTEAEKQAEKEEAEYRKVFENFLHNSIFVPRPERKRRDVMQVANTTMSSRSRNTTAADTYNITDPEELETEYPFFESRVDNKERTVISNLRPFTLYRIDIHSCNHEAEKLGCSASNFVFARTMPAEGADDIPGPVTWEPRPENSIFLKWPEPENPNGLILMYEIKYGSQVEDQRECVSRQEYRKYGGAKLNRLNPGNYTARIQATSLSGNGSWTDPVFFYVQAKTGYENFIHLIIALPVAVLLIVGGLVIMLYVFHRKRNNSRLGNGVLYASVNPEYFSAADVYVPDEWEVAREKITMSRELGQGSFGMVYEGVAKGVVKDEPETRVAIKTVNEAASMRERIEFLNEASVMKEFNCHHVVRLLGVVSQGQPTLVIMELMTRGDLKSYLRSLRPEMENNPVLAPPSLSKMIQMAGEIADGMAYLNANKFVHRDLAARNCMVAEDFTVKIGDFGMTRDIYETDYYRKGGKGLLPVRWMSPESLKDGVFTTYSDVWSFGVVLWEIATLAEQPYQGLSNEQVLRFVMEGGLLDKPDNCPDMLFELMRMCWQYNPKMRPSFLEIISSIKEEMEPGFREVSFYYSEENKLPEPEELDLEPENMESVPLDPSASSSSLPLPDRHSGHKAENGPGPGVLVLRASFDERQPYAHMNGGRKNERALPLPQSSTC
ITK, sequence (Q08881 whole entry, species assumed): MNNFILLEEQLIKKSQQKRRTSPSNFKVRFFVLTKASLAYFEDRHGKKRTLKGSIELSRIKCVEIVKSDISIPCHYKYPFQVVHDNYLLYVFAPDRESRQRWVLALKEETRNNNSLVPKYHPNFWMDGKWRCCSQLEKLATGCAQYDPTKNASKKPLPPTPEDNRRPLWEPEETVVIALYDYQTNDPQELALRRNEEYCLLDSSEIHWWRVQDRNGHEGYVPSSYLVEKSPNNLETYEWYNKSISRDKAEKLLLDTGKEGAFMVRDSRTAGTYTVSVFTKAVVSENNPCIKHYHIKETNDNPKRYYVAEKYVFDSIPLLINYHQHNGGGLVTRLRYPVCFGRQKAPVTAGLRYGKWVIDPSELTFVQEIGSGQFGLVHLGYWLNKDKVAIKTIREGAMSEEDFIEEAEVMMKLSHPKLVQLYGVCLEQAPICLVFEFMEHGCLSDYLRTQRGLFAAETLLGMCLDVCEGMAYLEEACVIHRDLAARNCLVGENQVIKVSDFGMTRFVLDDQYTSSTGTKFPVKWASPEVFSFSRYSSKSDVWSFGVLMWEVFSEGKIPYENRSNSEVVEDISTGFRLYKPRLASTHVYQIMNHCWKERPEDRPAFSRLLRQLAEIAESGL
BMX, sequence (P51813 whole entry, species assumed): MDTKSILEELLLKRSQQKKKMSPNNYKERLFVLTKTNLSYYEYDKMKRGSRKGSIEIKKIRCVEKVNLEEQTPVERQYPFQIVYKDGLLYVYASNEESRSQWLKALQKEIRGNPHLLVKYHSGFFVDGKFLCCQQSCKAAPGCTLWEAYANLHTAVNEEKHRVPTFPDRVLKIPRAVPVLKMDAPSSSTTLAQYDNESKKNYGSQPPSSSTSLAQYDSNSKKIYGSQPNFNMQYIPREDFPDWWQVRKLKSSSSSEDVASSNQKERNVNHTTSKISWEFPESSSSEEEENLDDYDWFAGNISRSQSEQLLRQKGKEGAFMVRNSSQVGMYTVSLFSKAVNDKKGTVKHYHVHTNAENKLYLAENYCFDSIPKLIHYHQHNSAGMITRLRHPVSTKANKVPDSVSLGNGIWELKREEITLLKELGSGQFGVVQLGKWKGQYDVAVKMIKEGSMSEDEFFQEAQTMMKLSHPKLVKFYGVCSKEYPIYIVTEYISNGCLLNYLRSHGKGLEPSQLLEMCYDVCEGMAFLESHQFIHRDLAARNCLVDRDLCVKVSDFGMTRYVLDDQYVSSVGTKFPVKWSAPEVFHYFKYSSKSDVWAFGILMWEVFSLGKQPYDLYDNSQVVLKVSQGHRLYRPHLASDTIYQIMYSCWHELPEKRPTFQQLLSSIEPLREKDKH
BLK, sequence (P51451 whole entry, species assumed): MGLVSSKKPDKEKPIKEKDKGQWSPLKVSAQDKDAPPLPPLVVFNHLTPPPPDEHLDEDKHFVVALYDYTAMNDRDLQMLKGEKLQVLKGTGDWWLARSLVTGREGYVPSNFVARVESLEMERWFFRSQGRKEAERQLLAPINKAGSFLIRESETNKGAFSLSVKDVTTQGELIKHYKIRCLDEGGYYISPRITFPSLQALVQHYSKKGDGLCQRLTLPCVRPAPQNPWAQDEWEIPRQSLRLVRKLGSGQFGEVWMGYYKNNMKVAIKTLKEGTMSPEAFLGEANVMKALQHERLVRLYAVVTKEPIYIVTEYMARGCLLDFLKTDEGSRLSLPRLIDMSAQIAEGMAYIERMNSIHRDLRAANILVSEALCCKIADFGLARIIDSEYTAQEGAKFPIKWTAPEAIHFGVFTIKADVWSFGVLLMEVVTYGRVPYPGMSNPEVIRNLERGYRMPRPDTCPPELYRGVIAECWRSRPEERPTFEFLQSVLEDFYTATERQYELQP
Txk, sequence (P42681 whole entry, species assumed): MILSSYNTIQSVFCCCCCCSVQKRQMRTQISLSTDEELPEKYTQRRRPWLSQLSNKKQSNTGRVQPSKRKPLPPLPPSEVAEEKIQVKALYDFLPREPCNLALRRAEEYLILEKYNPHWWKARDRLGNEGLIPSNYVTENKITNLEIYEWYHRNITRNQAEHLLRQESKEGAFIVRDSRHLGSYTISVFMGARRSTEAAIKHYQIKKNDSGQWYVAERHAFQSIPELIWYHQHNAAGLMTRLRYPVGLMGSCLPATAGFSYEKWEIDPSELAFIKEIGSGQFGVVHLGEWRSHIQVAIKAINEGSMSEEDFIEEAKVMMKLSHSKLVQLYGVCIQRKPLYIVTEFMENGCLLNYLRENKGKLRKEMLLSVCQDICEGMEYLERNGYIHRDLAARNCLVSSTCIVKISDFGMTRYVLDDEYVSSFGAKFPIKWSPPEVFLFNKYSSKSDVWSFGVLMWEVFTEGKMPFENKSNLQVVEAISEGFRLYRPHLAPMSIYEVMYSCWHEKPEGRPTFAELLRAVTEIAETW

For `CN(Cc1cnc2nc(N)nc(N)c2n1)c1ccc(C(=O)N[C@@H](CCC(=O)O)C(=O)O)cc1` [MTX, methotrexate, reference compound], the “Reduction in inflammation and bone resorption (histology)” value (CIA DBA/1 mice [1]; MTX alone) was 10%.
For `Cc1c(-c2c(F)cc(C(N)=O)c3[nH]c4c(c23)CC[C@H](C(C)(C)O)C4)cccc1-n1c(=O)c2cccc(F)c2n(C)c1=O` [BMS-986142, 6-fluoro-5-(R)-(3-(S)-(8-fluoro-1-methyl-2,4-dioxo-1,2-dihydroquinazolin-3(4H)-yl)-2-methylphenyl)-2-(S)-(2-hydroxypropan-2-yl)-2,3,4,9-tetrahydro-1H-carbazole-8-carboxamide], the IC50 (BMX) was 32 nM, the IC50 (FGR) was 81 nM and the IC50 (IGF1R) was 247 nM. The IC50 (human B cells) was at most 5 nM, the IC50 (Ramos B cells [2]) was about 20 nM and the IC50 [3] was 90 nM. For the same compound, the IC50 [4] was 3 ± 3 nM, the “Reduction of clinical scores” value (CIA DBA/1 mice [5]) was 46% and the “Reduction of clinical scores at study end” value (CAIA BALB/c mice; 5 mg/kg, prophylactic) was 72%. The “Inhibition of clinical scores at study end” value (CAIA BALB/c mice; 20 mg/kg, prophylactic) was over 90%, the “Histological bone resorption and inflammation scores of hind paws” value (CAIA BALB/c mice; 5 and 20 mg/kg) was “effective at reducing bone resorption as well as inflammation scores” and the “Inhibition of anti-KLH IgM response” value ([6]; 30 mg/kg PO QD, day 7) was 77%. For the same compound, the “Inhibition of anti-KLH IgG response” value ([6]; 30 mg/kg PO QD, day 14) was 87%, the “Anti-KLH IgM and IgG antibody responses versus vehicle” value ([6]; 10 and 30 mg/kg PO QD) was “Significant reductions” and the IC50 [7] was 140 nM. For the same compound, the “Clinical score reduction at end of study” value (CIA DBA/1 mice [8]; 2 mg/kg) was 17%, the “Clinical score reduction at end of study” value (CIA DBA/1 mice [8]; 4 mg/kg) was 37% and the “Clinical score reduction at end of study” value (CIA DBA/1 mice [8]; 25 mg/kg) was 67%. The “Disease-induced remodeling/erosions and loss of bone mass compared with vehicle (micro-CT)” value (CIA DBA/1 mice [8]; therapeutic, 2, 4 and 25 mg/kg) was “dose-dependent protection”, the IC50 (Src) was 1110 nM and the IC50 (ITK) was 15 nM. It also gave an IC50 (human tonsillar B cells [9]) of 5 ± 3 nM, an IC50 (Human recombinant BTK) of 0.5 nM and an IC50 [10] of 89 nM. For the same compound, the IC50 (human tonsillar B cells [11]) was 3 ± 3 nM, the IC50 [12] was 4 ± 3 nM and the IC50 [13] was over 30000 nM. The IC50 [14] was 4 ± 3 nM, the “Disease-associated increase in splenic CD138+B220low plasma cells” value (CIA DBA/1 mice [1]) was “inhibited” and the “Effect on B cell numbers” value (CIA DBA/1 mice [1]) was “did not deplete B cells”. The “Expression of CD38 on plasma cells induced by disease” value (CIA DBA/1 mice [1]) was “inhibited”, the “Reduction in clinically evident disease at end of study” value (CIA DBA/1 mice [1]; 4 mg/kg PO QD) was 26% and the “Reduction in clinically evident disease at end of study” value (CIA DBA/1 mice [1]; 10 mg/kg PO QD) was 43%. The “Reduction in clinically evident disease at end of study” value (CIA DBA/1 mice [1]; 30 mg/kg PO QD) was 79%, the “Serum anti-collagen II IgG titers” value (CIA DBA/1 mice [1]; 10 and 30 mg/kg) was “significantly inhibited” and the “Reduction in inflammation and bone resorption (histology)” value (CIA DBA/1 mice [1]; BMS-986142 4 mg/kg alone) was 24%. For the same compound, the IC50 (Ramos B cells [15]) was 9 ± 5 nM, the IC50 (BLK) was 23 nM and the IC50 (human tonsillar B cells [16]) was 3 ± 1 nM. For the same compound, the IC50 (Tec) was 10 nM, the IC50 (Txk) was 28 nM and the IC50 [17] was over 10000 nM. The “Lowest concentration at which inhibition of RANK-L-induced osteoclastogenesis was evident” value [18] was 15 nM, the IC50 (CSK) was 148 nM and the IC50 [19] was 3 ± 3 nM. It also gave an IC50 (Lck) of 71 nM and an IC50 [20] of over 10000 nM.
